Experimental data reported in patent US9113629B2, “4-amino-6-(4-substituted-phenyl)-picolinates and 6-amino-2-(4-substituted-phenyl)-pyrimidine-4-carboxylates and their use as herbicides” (DOW AGROSCIENCES LLC, priority 2013, dated 2015).
Read-outs that look alike come from different tables or passages of the source.

How the values were obtained:
[1] = tested on: Key Broadleaf Weed and Crop Species; experiment: Post-emergent Test II herbicidal activity (Table 5); format: in vivo; settings: post-emergence, 336 h, post-emergent, 14 days after application; for pest or weed control at 70 g/ha: 70 g ai/ha; for pest or weed control at 140 g/ha: 140 g ai/ha
In short: (§1)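 Test species were raised 7–21 d under greenhouse conditions until reaching the first or second true leaf, sprayed with formulated compound at 187 L/ha, and kept subirrigated to avoid wash-off. Fourteen days later, damage was rated visually on a 0–100% scale against untreated plants.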

[2] = tested on: Key Grass and Sedge Weeds as well as Grass Crops; experiment: Post-emergent Test II herbicidal activity (Table 6); format: in vivo; settings: post-emergence, 336 h; for pest or weed control at 70 g/ha: application rate 70 g ai/ha; for pest or weed control at 140 g/ha: application rate 140 g ai/ha
In short: as §1

[3] = ABUTH: velvetleaf (Abutilon theophrasti), read-out: Visual Growth Reduction (%) 14 Days After Application ABUTH
[4] = AMARE: redroot pigweed (Amaranthus retroflexus), read-out: Visual Growth Reduction (%) 14 Days After Application AMARE
[5] = BRSNN: oilseed-rape, canola (Brassica napus), read-out: Visual Growth Reduction (%) 14 Days After Application BRSNN
[6] = CHEAL: lambsquarters (Chenopodium album), read-out: Visual Growth Reduction (%) 14 Days After Application CHEAL
[7] = EPHHL: wild poinsettia (Euphorbia heterophylla), read-out: Visual Growth Reduction (%) 14 Days After Application EPHHL
[8] = HELAN: sunflower (Helianthus annuus), read-out: Visual Growth Reduction (%) 14 Days After Application HELAN
[9] = VIOTR: wild pansy (Viola tricolor), read-out: Visual Growth Reduction (%) 14 Days After Application VIOTR
[10] = CYPES: yellow nutsedge (Cyperus esculentus), read-out: Visual Growth Reduction (%) 14 Days After Application, CYPES
[11] = DIGSA: crabgrass (Digitaria sanguinalis), read-out: Visual Growth Reduction (%) 14 Days After Application, DIGSA
[12] = ECHCG: barnyardgrass (Echinochloa crus-galli), read-out: Visual Growth Reduction (%) 14 Days After Application, ECHCG
[13] = ORYSA: rice (Oryza sativa), read-out: Visual Growth Reduction (%) 14 Days After Application, ORYSA
[14] = SETFA: giant foxtail (Setaria faberi), read-out: Visual Growth Reduction (%) 14 Days After Application, SETFA
[15] = SORVU: grain sorghum (Sorghum vulgare), read-out: Visual Growth Reduction (%) 14 Days After Application, SORVU
[16] = TRZSS (wheat, Triticum aestivum), read-out: Visual Growth Reduction (%) 14 Days After Application, TRZSS
[17] = ZEAMX: maize, corn (Zea mays), read-out: Visual Growth Reduction (%) 14 Days After Application, ZEAMX

melting point: 176.2 to 178.7 °C
Compound: COC(=O)c1nc(-c2c(F)cc(I)c(F)c2F)cc(N)c1Cl [Compound 90]
pest or weed control at 70 g/ha [1, 3]: 85 to 94%
pest or weed control at 140 g/ha [1, 3]: 85 to 94%
pest or weed control at 70 g/ha [1, 4]: 95 to 100%
pest or weed control at 140 g/ha [1, 4]: 95 to 100%
pest or weed control at 70 g/ha [1, 5]: 95 to 100%
pest or weed control at 140 g/ha [1, 5]: 95 to 100%
pest or weed control at 70 g/ha [1, 6]: 95 to 100%
pest or weed control at 140 g/ha [1, 6]: 95 to 100%
pest or weed control at 70 g/ha [1, 7]: 95 to 100%
pest or weed control at 140 g/ha [1, 7]: 95 to 100%
pest or weed control at 70 g/ha [1, 8]: 30 to 44%
pest or weed control at 140 g/ha [1, 8]: 75 to 84%
pest or weed control at 70 g/ha [1, 9]: 95 to 100%
pest or weed control at 140 g/ha [1, 9]: 95 to 100%
pest or weed control at 70 g/ha [2, 10]: 95 to 100%
pest or weed control at 140 g/ha [2, 10]: 95 to 100%
pest or weed control at 70 g/ha [2, 11]: 85 to 94%
pest or weed control at 140 g/ha [2, 11]: 75 to 84%
pest or weed control at 70 g/ha [2, 12]: 85 to 94%
pest or weed control at 140 g/ha [2, 12]: 85 to 94%
pest or weed control at 70 g/ha [2, 13]: 30 to 44%
pest or weed control at 140 g/ha [2, 13]: 0 to 29%
pest or weed control at 70 g/ha [2, 14]: 85 to 94%
pest or weed control at 140 g/ha [2, 14]: 85 to 94%
pest or weed control at 70 g/ha [2, 15]: 95 to 100%
pest or weed control at 140 g/ha [2, 15]: 95 to 100%
pest or weed control at 70 g/ha [2, 16]: 30 to 44%
pest or weed control at 140 g/ha [2, 16]: 45 to 59%
pest or weed control at 70 g/ha [2, 17]: 60 to 74%
pest or weed control at 140 g/ha [2, 17]: 60 to 74%
